Measurements as given in patent publication US4103082A, “Aminocyclitol derivatives and process for producing the same” (priority 1975, dated 1978).
Converted amounts (≈) assume the structure as drawn.

Key:
[1] = tested on: Bacillus subtilis ATCC 6633; test: paper disk method, inhibitory zone diameter; type: cell-based; settings: read-out: inhibitory zone diameter
E. coli K-12 = test: paper disk method, inhibitory zone diameter; type: cell-based; settings: Escherichia coli, K12, read-out: inhibitory zone diameter
[2] = tested on: Staphylococcus aureus 6538P; test: paper disk method, inhibitory zone diameter; type: cell-based; settings: read-out: inhibitory zone diameter
[3] = tested on: E. coli HL-1629 (Kanamycin-resistant strain); test: microbe, parasite or virus in culture; type: cell-based; settings: Escherichia coli, read-out: inhibitory zone diameter
Klebsiella 6 = test: paper disk method, inhibitory zone diameter; type: cell-based; settings: Klebsiella, 6; 2000 γ/ml; read-out: inhibitory zone diameter
Mycobacterium 607 = test: paper disk method, inhibitory zone diameter; type: cell-based; settings: Mycobacterium, 607, read-out: inhibitory zone diameter
Pseudomonas 1007 = test: paper disk method, inhibitory zone diameter; type: cell-based; settings: Pseudomonas, 1007; 2000 γ/ml; read-out: inhibitory zone diameter
[4] = tested on: Staphylococcus aureus 209P JC-1; test: antibacterial activity (Minimum Inhibitory Concentration); type: cell-based; settings: Staphylococcus aureus 209P JC-1; read-out: MIC
[5] = tested on: Staphylococcus aureus Smith S-424; test: as above; type: cell-based; settings: SMITHS424; Staphylococcus aureus Smith S-424; read-out: MIC
[6] = tested on: Staphylococcus aureus No. 26; test: as above; type: cell-based; settings: Staphylococcus aureus, NO.26
[7] = tested on: Staphylococcus aureus C73-4; test: as above; type: cell-based; settings: Staphylococcus aureus, C734
[8] = tested on: Staphylococcus aureus C73-10; test: as above; type: cell-based; settings: Staphylococcus aureus, C7310
[9] = tested on: Staphylococcus aureus C73-21; test: as above; type: cell-based; settings: C7321; Staphylococcus aureus C73-21; read-out: MIC
[10] = tested on: Staphylococcus albus PCI-1200A; test: as above; type: cell-based; settings: PCI1200A; Staphylococcus albus PCI-1200A; read-out: MIC
[11] = tested on: Bacillus subtilis ATCC 6633; test: as above; type: cell-based; settings: ATCC6633; Bacillus subtilis ATCC 6633; read-out: MIC
E. coli C73-1 = test: as above; type: cell-based; settings: Escherichia coli, C731; E. coli C73-1; read-out: MIC
E. coli C73-4 = test: as above; type: cell-based; settings: Escherichia coli, C734; E. coli C73-4; read-out: MIC
E. coli C73-12 = test: as above; type: cell-based; settings: Escherichia coli, C7312
[12] = tested on: Salmonella species C73-30; test: as above; type: cell-based; settings: C7330
[13] = tested on: Shigella dysenteriae Shigae; test: microbe, parasite or virus in culture; type: cell-based
Proteus morganii Kono = test: antibacterial activity (Minimum Inhibitory Concentration); type: cell-based; settings: Morganella morganii
Proteus species C73-23 = test: as above; type: cell-based; settings: Proteus species C73-23; read-out: MIC
Proteus species C73-25 = test: as above; type: cell-based; settings: Proteus species C73-25; read-out: MIC
Proteus species C73-33 = test: as above; type: cell-based; settings: Proteus species C73-33; read-out: MIC
Proteus species C73-34 = test: as above; type: cell-based; settings: Proteus species C73-34; read-out: MIC
[14] = tested on: Enterococcus species C73-33; test: as above; type: cell-based; settings: Enterococcus, C7333
[15] = tested on: Enterococcus species C73-17; test: as above; type: cell-based; settings: Enterococcus, C7317
[16] = tested on: Vibrio parahaemolyticus K-3; test: as above; type: cell-based; settings: K3; Vibrio parahaemolyticus K-3; read-out: MIC
[17] = tested on: Vibrio parahaemolyticus K-5; test: as above; type: cell-based; settings: K5; Vibrio parahaemolyticus K-5; read-out: MIC
[18] = tested on: Vibrio parahaemolyticus K-7; test: as above; type: cell-based; settings: K7; Vibrio parahaemolyticus K-7; read-out: MIC
microorganisms indicated = test: antimicrobial activities, paper disk method (general statement); type: cell-based; settings: Tables 1 to 4
Description: The inhibitory activities were determined at various concentrations of the compounds using the paper disk method against the microorganisms indicated and the numerical values show the inhibitory zone diameter in terms of mm.

male ICR mice = test: acute toxicity; settings: intravenous administration, 200 mg/kg

NC[C@H]1O[C@H](O[C@H]2C[C@@H](O)[C@H](N)C[C@@H]2N)[C@H](N)[C@@H](O)[C@@H]1O [5-Deoxyneamine, 5-deoxyneamine]
zone of inhibition at 7.8 µg/mL ([1]; ATCC6633, 7.8 γ/ml): 11.2 mm
zone of inhibition at 15.6 µg/mL ([1]; ATCC6633, 15.6 γ/ml): 13.8 mm
zone of inhibition at 31.2 µg/mL ([1]; ATCC6633, 31.2 γ/ml): 15.7 mm
zone of inhibition at 62.5 µg/mL ([1]; ATCC6633, 62.5 γ/ml): 20.5 mm
zone of inhibition at 125 µg/mL ([1]; ATCC6633, 125 γ/ml): 23.2 mm
zone of inhibition at 250 µg/mL ([1]; ATCC6633, 250 γ/ml): 25.6 mm
zone of inhibition at 500 µg/mL ([1]; ATCC6633, 500 γ/ml): 28.3 mm
zone of inhibition at 1000 µg/mL ([1]; ATCC6633, 1000 γ/ml): 30.8 mm
zone of inhibition at 2000 µg/mL ([1]; ATCC6633, 2000 γ/ml): 33.4 mm
zone of inhibition at 7.8 µg/mL (E. coli K-12; 7.8 γ/ml): 0 mm
zone of inhibition at 15.6 µg/mL (E. coli K-12; 15.6 γ/ml): 0 mm
zone of inhibition at 31.2 µg/mL (E. coli K-12; 31.2 γ/ml): 12.1 mm
zone of inhibition at 62.5 µg/mL (E. coli K-12; 62.5 γ/ml): 14.7 mm
zone of inhibition at 125 µg/mL (E. coli K-12; 125 γ/ml): 17.2 mm
zone of inhibition at 250 µg/mL (E. coli K-12; 250 γ/ml): 18.7 mm
zone of inhibition at 500 µg/mL (E. coli K-12; 500 γ/ml): 22 mm
zone of inhibition at 1000 µg/mL (E. coli K-12; 1000 γ/ml): 24.5 mm
zone of inhibition at 2000 µg/mL (E. coli K-12; 2000 γ/ml): 26.6 mm
zone of inhibition at 7.8 µg/mL ([2]; 7.8 γ/ml): 0 mm
zone of inhibition at 15.6 µg/mL ([2]; 15.6 γ/ml): 0 mm
zone of inhibition at 31.2 µg/mL ([2]; 31.2 γ/ml): 0 mm
zone of inhibition at 62.5 µg/mL ([2]; 62.5 γ/ml): 10.3 mm
zone of inhibition at 125 µg/mL ([2]; 125 γ/ml): 12.4 mm
zone of inhibition at 250 µg/mL ([2]; 250 γ/ml): 15.3 mm
zone of inhibition at 500 µg/mL ([2]; 500 γ/ml): 18.5 mm
zone of inhibition at 1000 µg/mL ([2]; 1000 γ/ml): 20.4 mm
zone of inhibition at 2000 µg/mL ([2]; 2000 γ/ml): 22.5 mm
zone of inhibition at 1000 µg/mL [3]: 0 mm
zone of inhibition at 2000 µg/mL [3]: 13.9 mm
zone of inhibition at 2000 µg/mL (Klebsiella 6): 0 mm
zone of inhibition at 62.5 µg/mL (Mycobacterium 607; 62.5 γ/ml): 0 mm
zone of inhibition at 125 µg/mL (Mycobacterium 607; 125 γ/ml): 0 mm
zone of inhibition at 250 µg/mL (Mycobacterium 607; 250 γ/ml): 10.4 mm
zone of inhibition at 500 µg/mL (Mycobacterium 607; 500 γ/ml): 16.4 mm
zone of inhibition at 1000 µg/mL (Mycobacterium 607; 1000 γ/ml): 22 mm
zone of inhibition at 2000 µg/mL (Mycobacterium 607; 2000 γ/ml): 26.8 mm
zone of inhibition at 2000 µg/mL (Pseudomonas 1007): 0 mm
MIC [4]: 0.39 µg/mL (≈ 1.27 µM)
MIC [5]: 0.78 µg/mL (≈ 2.55 µM)
MIC [6]: 1.56 µg/mL (≈ 5.09 µM)
MIC [7]: 1.56 µg/mL (≈ 5.09 µM)
MIC [8]: 1.56 µg/mL (≈ 5.09 µM)
MIC [9]: 0.2 µg/mL (≈ 0.653 µM)
MIC [10]: 0.2 µg/mL (≈ 0.653 µM)
MIC [11]: 0.39 µg/mL (≈ 1.27 µM)
MIC (E. coli C73-1): 12.5 µg/mL (≈ 40.8 µM)
MIC (E. coli C73-4): 12.5 µg/mL (≈ 40.8 µM)
MIC (E. coli C73-12): 6.25 µg/mL (≈ 20.4 µM)
MIC [12]: 12.5 µg/mL (≈ 40.8 µM)
MIC [13]: 6.25 µg/mL (≈ 20.4 µM)
MIC (Proteus morganii Kono): 6.25 µg/mL (≈ 20.4 µM)
MIC (Proteus species C73-23): 12.5 µg/mL (≈ 40.8 µM)
MIC (Proteus species C73-25): 3.13 µg/mL (≈ 10.2 µM)
MIC (Proteus species C73-33): 50 µg/mL (≈ 163 µM)
MIC (Proteus species C73-34): 12.5 µg/mL (≈ 40.8 µM)
MIC [14]: 6.25 µg/mL (≈ 20.4 µM)
MIC [15]: 6.25 µg/mL (≈ 20.4 µM)
MIC [16]: 0.39 µg/mL (≈ 1.27 µM)
MIC [17]: 12.5 µg/mL (≈ 40.8 µM)
MIC [18]: 12.5 µg/mL (≈ 40.8 µM)
antimicrobial activities relative to neamine (microorganisms indicated): superior to those of the parent compound neamine
acute toxicity, survival (male ICR mice): all male ICR mice were survived
